Source: PubChem BioAssay (NCI)
Several values for one entry are separate records, joined by “and”; a condition that tells them apart may be missing. Equal values may be shown once.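 Protocol summary: plate cells (96-well), add compound at 5 concentrations, incubate 48 h, interpolate endpoints linearly. GI50 is the concentration that inhibits growth by half. TGI: concentration producing complete growth inhibition.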 *1 amine or outer side, *2 acyl side, *3 side chain or, on linkers, in order; H or OH if unused. Where a SMILES comes first, the peptide text is derived from it. Bridges are numbered along the chain shown (N, C = ends). [ ]: non-standard residue; d: D form. ξ: configuration not given here. X35 = CC[C@H](C)[C@@H](N[*:1])[C@@H](O)CC(=O)O[C@H](C(=O)[C@H](C)C(=O)[*:2])C(C)C; NMeY = CN[C@@H](Cc1ccc(O)cc1)C(=O)O; dNMeL = CN[C@H](CC(C)C)C(=O)O; ξΔPro = O=C(O)C1C=CCN1

How the values were obtained:
Assay in all cases: NCI anticancer screen, dose series, 48 h
HL-60(TB) leukemia = system: HL-60(TB) leukemia
NCI-H23 lung = system: NCI-H23 lung
SF-268 CNS = system: SF-268 CNS
SK-MEL-2 melanoma = system: SK-MEL-2 melanoma
SN12C renal = system: SN12C renal
SNB-78 CNS = system: SNB-78 CNS
ACHN renal = system: ACHN renal
HOP-92 NSCLC = system: HOP-92 NSCLC
MDA-MB-231 breast = system: MDA-MB-231 breast
TK-10 renal = system: TK-10 renal

Structure (SMILES) | GI50 (HL-60(TB) leukemia) | GI50 (NCI-H23 lung) | TGI (NCI-H23 lung) | GI50 (SF-268 CNS) | TGI (SF-268 CNS) | GI50 (SK-MEL-2 melanoma) | TGI (SK-MEL-2 melanoma) | GI50 (SN12C renal) | TGI (SN12C renal) | GI50 (SNB-78 CNS) | TGI (SNB-78 CNS) | TGI (ACHN renal) | TGI (HL-60(TB) leukemia) | TGI (HOP-92 NSCLC) | TGI (MDA-MB-231 breast) | TGI (TK-10 renal)
CCC1(OC(=O)CN)C(=O)OCc2c1cc1n(c2=O)Cc2cc3cc4c(cc3nc2-1)OCO4 (configuration not stated) | < 0.01 µM | < 0.01 µM | 0.119 µM and 0.0337 µM | < 0.01 µM | > 100 µM | 0.135 µM and 0.221 µM | 3.15 µM and 1.07 µM | < 0.01 µM | 21.8 µM and > 100 µM | 0.468 µM | 81.8 µM |  |  |  |  | 
CC1CN=C(c2ccc(CN3CCC(C4CCN(Cc5ccc(C6=NCC(C)N6)cc5)CC4)CC3)cc2)N1 (configuration not stated) |  |  | 84.7 µM |  | 53.7 µM |  | 36 µM |  | 37 µM |  |  | 75.9 µM | > 100 µM | > 100 µM | 36.3 µM | 57.5 µM
COC(=O)c1cc(C)ccc1C1CN=NC12Cc1c(C)cc(C)cc1C2=O (configuration not stated) |  |  | 50.4 µM |  | 98.9 µM |  | 33.1 µM |  | > 100 µM |  |  | > 100 µM | 29.3 µM | 40.9 µM | 65.7 µM | 82.5 µM
C=CCCCCn1c2ccccc2c2c(C)c3cnccc3c(C)c21 |  |  | 32.8 µM |  | 77.8 µM |  | 47.3 µM |  | 29.7 µM |  | 46.3 µM |  | 4.92 µM | 19.8 µM |  | 
C[C@]12CC[C@H]3[C@@H](CCC4=C(Br)C(=O)C=C[C@@]43O)[C@@H]1CCC2=O |  |  | > 100 µM |  | > 100 µM |  | > 100 µM |  | > 100 µM |  |  | > 100 µM | 81.6 µM | 75.9 µM | > 100 µM | 94.2 µM
Cc1nc2cccc(F)c2c(=O)n1-c1nnc(C(F)(F)F)s1 |  |  | > 10 µM |  | > 10 µM |  | > 10 µM |  | > 10 µM |  |  | > 10 µM | > 10 µM | > 10 µM | > 10 µM | > 10 µM
C/C(=N/NC(=S)N1CCN(C(=S)N/N=C(/C)c2ccccn2)CC1)c1ccccn1 |  |  | > 81.9 µM |  | 57 µM |  | > 100 µM |  | > 100 µM |  |  | > 44.1 µM | 1.98 µM | > 100 µM | > 100 µM | > 100 µM
O=C(O)CCSC1=NCCN1 |  |  | > 100 µM |  | > 100 µM |  | > 100 µM |  | > 100 µM |  |  | > 100 µM | > 100 µM | > 100 µM | > 100 µM | > 100 µM
CC1=NN2C(=N)/C(=C/c3ccccc3)C(=O)N=C2S1 |  |  | > 100 µM |  | > 100 µM |  | > 100 µM |  | > 100 µM |  |  | > 100 µM | > 100 µM | > 100 µM | > 100 µM | > 100 µM
CC(C)(CN1CCCCC1)C(/C=C/c1ccccc1)=N\NC(=O)N/N=C(/C=C/c1ccccc1)C(C)(C)CN1CCCCC1 |  |  | 4.68 µM |  | 8.94 µM |  | 3.73 µM |  | 4.03 µM |  |  | 11.9 µM | 2.86 µM | 3.76 µM | 2.81 µM | 3.36 µM
C[C@]12CCC(=O)C=C1CC[C@@H]1[C@@H]2[C@@H](O)C[C@@]2(C)[C@H]1CC[C@]2(O)C(=O)COC(=O)CCC1CCCC1 |  |  | > 100 µM |  | > 100 µM |  |  |  | > 100 µM |  | > 100 µM | > 100 µM | > 100 µM | > 100 µM |  | > 100 µM
COc1cc2c(cc1O)CCN(C)[C@H]2Cc1ccc(Oc2c(O)c(OC)cc3c2C[C@H]2c4c(c(OC)c(OC)c(OC)c4-3)CCN2C)cc1 |  |  | 12.9 µM |  | 11.5 µM |  | 12.6 µM |  | 10.7 µM |  |  | 10.7 µM | 10.6 µM | 7.17 µM | 9.47 µM | 11.3 µM
CCN(CC)C1Oc2cc3c(cc2C(c2cc(OC)c(OC)c(OC)c2)C1C)OCO3 (configuration not stated) |  |  | > 49 µM |  | > 58.2 µM |  | 11.7 µM |  | > 53.8 µM |  |  | > 38.7 µM | 0.932 µM | 96.5 µM | 65.9 µM | > 72.1 µM
COC1(OC)C=CC(=O)C=C1 |  |  | 10.6 µM |  | 16.7 µM |  | 21.5 µM |  | 30.8 µM |  |  | 8.56 µM | 15.6 µM | 11 µM | 7.2 µM | 7.67 µM
COc1cc2oc(-c3ccc4c(c3)OCO4)c(OC)c(=O)c2c(O)c1OC |  |  | > 50 µM |  | > 50 µM |  | > 50 µM |  | > 50 µM |  |  | > 50 µM | > 50 µM | > 50 µM | > 50 µM | > 50 µM
C=C(CCOC)CCC1CCCCC(=C)[C@H]1O (some centres not stated) |  |  | > 100 µM |  | > 100 µM |  | > 100 µM |  | > 100 µM |  |  | > 100 µM | > 100 µM | > 100 µM | > 100 µM | > 100 µM
COC(=O)/C=C1\C(=O)C=C2[C@@H]3C[C@H]4C[C@H](CC[C@@]4(C)N21)C3(C)NC(C)=O (some centres not stated) |  |  | > 60.6 µM |  | 22.9 µM |  | 38.9 µM |  | 26.6 µM |  |  | 46 µM | > 100 µM | 47.5 µM | 56.2 µM | 33.9 µM
CNC(=O)N(CCC#N)CCCN(C(=O)N(C)C)c1ccccc1 |  |  | > 100 µM |  | > 100 µM |  | > 100 µM |  | > 100 µM |  |  | > 100 µM | > 100 µM | > 100 µM | > 100 µM | > 100 µM
COC(=O)c1cc(C)ccc1/C=C1\Cc2c(C)cc(C)cc2C1=O |  |  | > 72.3 µM |  | 37.1 µM |  | 63.7 µM |  | > 100 µM |  |  | > 100 µM | > 100 µM | 25.2 µM | > 58.4 µM | 40 µM
O=C(O)COc1cc(-c2ccccc2)nc2ccccc12 |  |  | > 100 µM |  | > 100 µM |  | > 100 µM |  | > 100 µM |  |  | > 100 µM | > 100 µM | > 100 µM | > 100 µM | > 100 µM
CC(C)(C)C(=O)N1CCN(C=O)C1=S |  |  | > 100 µM |  | > 100 µM |  | > 100 µM |  | > 100 µM |  |  | > 100 µM | > 100 µM | 52.9 µM | > 100 µM | > 100 µM
CC1CN=C(c2ccc(-c3nc(-c4ccc(C5=NCC(C)N5)cc4)nc(N(C)C)n3)cc2)N1 (configuration not stated) |  |  | 9.94 µM |  | 6.53 µM |  | 4.05 µM |  | 3.87 µM |  |  | 11.5 µM | 6.88 µM | 11.3 µM | 3.05 µM | 11.5 µM
Cc1ccc(/C=N\NC(=O)c2ccncc2)s1 |  |  | > 100 µM |  | > 100 µM |  | > 100 µM |  | > 100 µM |  |  | > 100 µM | > 100 µM | > 100 µM | > 100 µM | > 100 µM
CC[C@H](C)[C@H]1NC(=O)[C@@H](NC(=O)[C@@H](CC(C)C)N(C)C(=O)C2C=CCN2)[C@@H](C)OC(=O)[C@H](Cc2ccc(OC)cc2)N(C)C(=O)[C@@H]2CCCN2C(=O)[C@H](CC(C)C)NC(=O)[C@@H](C)C(=O)[C@H](C(C)C)OC(=O)C[C@@H]1O (some centres not stated) (H-[ξΔPro][dNMeL]T[X35]LP[NMeY](Me); ester 3-C) |  |  | 0.0198 µM |  | 0.00802 µM |  | 0.0115 µM |  | > 50 µM |  |  | 0.061 µM | > 50 µM | 0.171 µM | < 0.0464 µM | 0.0516 µM
Clc1nc2c(C#Cc3ccccc3)ncnc2n1C1CCCCO1 (configuration not stated) |  |  | 33.5 µM |  | 37.2 µM |  | 31.5 µM |  | 23 µM |  |  | 30.9 µM | 33.7 µM | 34 µM | 48.4 µM | 53 µM
Cc1cn(CCOCCOC(=O)NC(CCCNC(N)=O)C(=O)O)c(=O)[nH]c1=O (configuration not stated) |  |  | > 100 µM |  | > 100 µM |  | > 100 µM |  | > 100 µM |  |  | > 100 µM | > 100 µM | > 100 µM | > 100 µM | > 100 µM
CCN(CC)/[N+]([O-])=N/O |  |  | > 100 µM |  | > 100 µM |  | > 100 µM |  | > 100 µM |  | > 100 µM | > 100 µM | > 100 µM | > 100 µM |  | > 100 µM
